Target: T1, ZrFsy1 (Zygosaccharomyces rouxii, UniProt C5DSI4)
T1 construct: gene ZYRO0C00374g; full length, 564 residues, C-terminal GFP tag, multicopy plasmid pZRS1-S (own promoter), expressed in S. cerevisiae hxt-null EBY.VW4000
T1 sequence (C5DSI4 1-564): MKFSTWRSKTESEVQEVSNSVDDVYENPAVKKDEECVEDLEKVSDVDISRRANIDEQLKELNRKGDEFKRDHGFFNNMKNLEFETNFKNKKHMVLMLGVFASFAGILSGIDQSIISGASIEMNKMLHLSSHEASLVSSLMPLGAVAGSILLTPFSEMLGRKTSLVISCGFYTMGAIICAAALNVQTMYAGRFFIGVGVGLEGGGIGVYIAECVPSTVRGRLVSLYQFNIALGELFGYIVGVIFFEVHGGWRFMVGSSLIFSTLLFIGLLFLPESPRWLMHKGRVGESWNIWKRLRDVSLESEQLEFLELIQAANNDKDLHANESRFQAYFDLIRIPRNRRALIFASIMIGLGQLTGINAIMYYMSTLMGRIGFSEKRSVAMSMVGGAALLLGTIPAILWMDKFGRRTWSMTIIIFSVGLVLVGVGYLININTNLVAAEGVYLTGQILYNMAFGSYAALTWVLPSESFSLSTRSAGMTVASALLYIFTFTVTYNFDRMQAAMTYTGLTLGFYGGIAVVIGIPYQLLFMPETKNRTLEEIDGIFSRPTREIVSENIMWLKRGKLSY
Experiment: inhibition of [U-14C]fructose uptake; extracellular alkalinisation on sorbose pulse
Type: cell-based
Conditions: competitor of labelled fructose; 10 mM sorbose, 25 °C, pH 5 in the proton symport assay; D / L form not stated

OCC1(O)OC[C@H](O)[C@@H](O)[C@@H]1O (stereo partly shown) [sorbose]
inhibition of [U-14C]fructose uptake; extracellular alkalinisation on sorbose pu: transport of radioactive fructose by ZrFsy1 was inhibited by sorbose but not by glucose

— paper PMC3699521, “ZrFsy1, a High-Affinity Fructose/H^+ Symporter from Fructophilic Yeast Zygosaccharomyces rouxii” (PLoS ONE, 2013)
